# Structures can show the parent of a compound that is named as a salt.
# Legend:
# Type in all cases: physicochemical
# [1] = Exploration of product stability in alkaline conditions; conditions: for Assay: 15~25° C.
# Text: Exploration of Product Stability in Alkaline Conditions.
# [2] = Exploration of solubility: 300 mg slurry in solvent (10 V) at 15~20° C.; conditions: for solubility: 15 °C, organic solvent or mixture, thermodynamic from solid; for solubility / Solubility (mg/mL): 300 mg slurry at 15~20° C.
# Text: Exploration of Step 3: Amide Formation. Exploration of Product Solubility.
# Exploration of the Solubility of 4 in Various Solvents.
# [3] = Exploration of solvent for filtration: 5a slurry in solvent; conditions: 500 mg slurry, HCl (EtOH) charged, 15˜25° C. for 20 h
# Method: Exploration of Solvent for Filtration.
# Experiments were performed 15˜25° C. for 20 h.
compound,measurement,setting,value
"COC(=O)CC[C@H](NC(=O)c1ccc(-n2ccnn2)cc1)C(=O)N1CCN(C)CC1 [Compound 3, methyl (4S)-4-[4-(1H-1,2,3-triazol-1-yl)benzoylamino]-5-(4-methylpiperazin-1-yl)-5-oxopentanoate]",Assay,"[1]; 1.0 g, pH 9-10 with 6M LiOH aqueous solution, 0 h",1.0 g
same,Assay,"[1]; 1.0 g, pH 9-10 with 6M LiOH aqueous solution, +10 h",1.0 g
same,Assay,"[1]; 1.0 g, pH 9-10 with 6M LiOH aqueous solution, +24 h (first)",1.0 g
same,Assay,"[1]; 1.0 g, pH 9-10 with 6M LiOH aqueous solution, +24 h (second)",1.0 g
same,Assay,"[1]; 1.0 g, pH 9-10 with 10 wt. % K2CO3 aqueous solution, 0 h",1.0 g
same,Assay,"[1]; 1.0 g, pH 9-10 with 10 wt. % K2CO3 aqueous solution, +10 h",0.90 g
same,Assay,"[1]; 1.0 g, pH 9-10 with 10 wt. % K2CO3 aqueous solution, +24 h (first)",0.87 g
same,Assay,"[1]; 1.0 g, pH 9-10 with 10 wt. % K2CO3 aqueous solution, +24 h (second)",0.87 g
same,Assay,"[1]; 1.0 g, pH 9-10 with 10 wt. % Na2CO3 aqueous solution, 0 h",1.0 g
same,Assay,"[1]; 1.0 g, pH 9-10 with 10 wt. % Na2CO3 aqueous solution, +10 h",0.99 g
same,Assay,"[1]; 1.0 g, pH 9-10 with 10 wt. % Na2CO3 aqueous solution, +24 h (first)",0.97 g
same,Assay,"[1]; 1.0 g, pH 9-10 with 10 wt. % Na2CO3 aqueous solution, +24 h (second)",0.99 g
same,Assay,"[1]; 1.0 g, pH 9-10 with 10 wt. % NaOH aqueous solution, 0 h",1.0 g
same,Assay,"[1]; 1.0 g, pH 9-10 with 10 wt. % NaOH aqueous solution, +10 h",1.0 g
same,Assay,"[1]; 1.0 g, pH 9-10 with 10 wt. % NaOH aqueous solution, +24 h (first)",1.0 g
same,Assay,"[1]; 1.0 g, pH 9-10 with 10 wt. % NaOH aqueous solution, +24 h (second)",1.0 g
same,Assay,"[1]; 1.1 g, pH 10-11 with NaOH aqueous solution (6N), 0 h",0.7 g
same,Assay,"[1]; 1.1 g, pH 10-11 with NaOH aqueous solution (6N), +7 h (after +20 h)",0.4 g
same,Assay,"[1]; 1.1 g, pH 10-11 with NaOH aqueous solution (6N), +20 h",0.5 g
same,Assay,"[1]; 1.1 g, pH 10-11 with NaOH aqueous solution (6N), +24 h (first, after +7 h)",0.3 g
same,Assay,"[1]; 1.1 g, pH 10-11 with NaOH aqueous solution (6N), +24 h (second)",0.2 g
same,stability (conclusion),[1]; in the presence of K2CO3,relatively instable
same,stability (conclusion),[1]; pH>10 in basic aqueous solution,not stable
same,stability (conclusion),"[1]; weak basic aqueous solution, pH=9-10",relatively stable
same,solubility,[2]; Acetonitrile (10 V),29500 µg/mL
same,solubility,[2]; EtOAc (10 V),9000 µg/mL
same,solubility,[2]; EtOH (10 V),22500 µg/mL
same,solubility,[2]; IPA (10 V),14100 µg/mL
same,solubility,[2]; IPAc (10 V),4800 µg/mL
same,solubility,[2]; MTBE (10 V),600 µg/mL
same,solubility,[2]; THF (10 V),84200 µg/mL
same,Solubility (mg/mL),[2]; DCM (10 V),Dissolved completely
same,Solubility (mg/mL),[2]; Heptane (10 V),insoluble
same,Solubility (mg/mL),[2]; MeOH (10 V),Dissolved completely
same,solubility (conclusion),"[2]; in DCM, THF or MeOH",good solubility
"CCCCCCCCCCCCSC(=O)CC[C@H](NC(=O)c1ccc(-n2ccnn2)cc1)C(=O)N1CCN(C)CC1 [Compound 5a, dodecyl (4S)-4-[4-(1H-1,2,3-triazol-1-yl)benzoylamino]-5-(4-methyl-piperazin-1-yl)-5-oxopentanethioate Hydrochloride Salt]",Result (solubility),[3]; DMSO (20 V),Soluble
same,Result (solubility),[3]; NMP (20 V),Soluble
"CN1CCN(C(=O)[C@H](CCC(=O)O)NC(=O)c2ccc(-n3ccnn3)cc2)CC1 [Compound 4, (4S)-4-[4-(1H-1,2,3-triazol-1-yl)benzoylamino]-5-(4-methylpiperazin-1-yl)-5-oxopentanoic Acid]",solubility,[2]; Acetonitrile (10 V),400 µg/mL
same,solubility,[2]; DCM (10 V),1000 µg/mL
same,solubility,[2]; EtOAc (10 V),400 µg/mL
same,solubility,[2]; EtOH (10 V),4000 µg/mL
same,solubility,[2]; IPA (10 V),900 µg/mL
same,solubility,[2]; IPAc (10 V),1000 µg/mL
same,solubility,[2]; MeOH (10 V),37000 µg/mL
same,solubility,[2]; THF (10 V),1200 µg/mL
same,stability in MeOH (conclusion of the solubility table),[2]; MeOH,high stability
same,solubility (conclusion),[2]; other tested solvents (than MeOH),lower solubility

# Source: patent publication US11390590B2, “Methods and processes for the preparation of KDM1A inhibitors” (Imago Biosciences, Inc., priority 2016, dated 2022)
